Read-outs that look alike come from different tables or passages of the source. Each block holds one molecule with its values, some of them ahead of it.
Columns and labels:
5-HT1A receptor = molecular target: T1, 5-HT1A receptor (Rattus norvegicus, UniProt P19327); assay: Inhibition of [^3 H]-8-OH-DPAT binding to rat hippocampal membrane homogenates; settings: for Ki: against [^3 H]-8-OH-DPAT, rat hippocampus membranes, read-out: K1 (inhibition constant)
T1 construct: from tissue; host or cells: rat hippocampus membrane homogenates
T1 sequence (P19327 1-422): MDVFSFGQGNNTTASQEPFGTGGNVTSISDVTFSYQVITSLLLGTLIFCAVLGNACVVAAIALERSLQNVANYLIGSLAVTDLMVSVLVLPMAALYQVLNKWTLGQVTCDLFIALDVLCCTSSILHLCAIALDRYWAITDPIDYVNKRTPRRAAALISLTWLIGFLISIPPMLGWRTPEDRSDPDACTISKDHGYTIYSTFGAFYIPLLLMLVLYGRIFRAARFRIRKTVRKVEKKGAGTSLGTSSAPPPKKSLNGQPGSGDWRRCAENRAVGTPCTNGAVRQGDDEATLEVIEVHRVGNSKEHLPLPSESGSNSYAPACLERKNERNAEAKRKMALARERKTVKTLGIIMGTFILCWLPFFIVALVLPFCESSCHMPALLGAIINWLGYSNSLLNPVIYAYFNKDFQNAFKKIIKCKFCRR
Experimental: The hippocampal homogenates were prepared in 100 volumes of ice-cold Tris-HCl buffer (50mM, pH 7.4) and centrifuged at 20,000 g for 20 minutes. […] The final pellets were resuspended in the Tris-buffer containing 2mM of MgCl2. […] The tubes were incubated at 37° C. for fifteen minutes and then terminated by vacuum filtration through glass filters (Schleicher & Schuell, No. 25, Keene, N.H.) soaked with 1% polyethylimine. […] Both Scatchard and competition experiments were analyzed using the iterative least-squarecurve fitting program LIGAND.

dopamine D2L receptor = assay: Specific binding of [^125 I]trans-7-OH-PIPAT to D2L receptors expressed in Sf9 cells; parameters: species or system rat; settings: data not shown
dopamine D2S receptor = assay: Specific binding of [^125 I]trans-7-OH-PIPAT to D2S receptors expressed in Sf9 cells; parameters: species or system rat; settings: data not shown
[1] = Stability of the radiolabelled product on storage (HPLC); type: physicochemical
Experimental: Hydrogen peroxide ([…]) was added to a mixture of […] (1mg/ml EtOH), […] and I-125 (2-3 mCi) in a sealed vial. The reaction was allowed to proceed for 20 min at room temperature, and was then terminated by addition of 0.1 ml of sodium bisulfite (300 mg/ml). The reaction mixture was extracted with ethyl acetate (3×1 ml) after neutralization with saturated NaHCO3 solution. The extracted ethyl acetate layers were evaporated to dryness, and the remaining residue was dissolved in EtOH and purified by HPLC using a reverse phase column (PRP-1 column, Hamilton Co., Reno, Nev.) eluted with an isocratic solvent of 80% acetonitrile-20% pH 7.0 buffer (5 mM 3,3'-dimethylglutaric acid). The fractions containing the desired product were collected, condensed and re-extracted with ethyl acetate (3×1 ml). The no-carrier-added final product (purity >98%) was evaporated to dryness and redissolved in […] with 100 mg ascorbic acid added as an anti-oxidant.
No-carrier-added [^125 I ]trans-8-OH-PIPAT(^125 I]8) was prepared by an iododestannylation reaction similar to the procedure reported previously (Acta. Chim. Scan., 1988, B42, 231-236). Hydrogen peroxide (50 μl 3% w/v) was added to a mixture of 50 μl of tributyltin precursor, 11 (11 mg/ml EtOH), 50 μl of 1N HCl and I-125 (2-3 mCi) in a sealed vial. The reaction was allowed to proceed for 20 minutes at room temperature, and was then terminated by addition of 0.1 ml of sodium bisulfite (300 mg/ml). The reaction mixture was extracted with ethyl acetate (3×1 ml) after neutralization with saturated NaHCO3 solution. The extracted ethyl acetate layers were evaporated to dryness, and the remaining residue was dissolved in EtOH and purified by HPCL using a reverse phase column (PRP-1 column, Hamilton Co., Reno, Nev.) eluted with an isocratic solvent of 80% acetonitrile-20% pH 7.0 buffer (5 mM 3,3'-dimethylglutaric acid); the retention time was 9 minutes (1 ml/min). The fractions containing the desired product were collected, condensed and re-extracted with ethyl acetate (3×1 ml). The final product of no-carrier-added (purity>98%) was evaporated to dryness and redissolved in 100 μl of 50% EtOH with 100 μg of ascorbic acid added as an anti-oxidant. The final product [^125 I] trans-8-OH-PIPAT(^125 I]8) was stored at -20° C.

Ki (5-HT1A receptor): 12.6 ± 1.5 nM
Structure (SMILES): CCCN(C/C=C/I)C1CCc2cccc(OC)c2C1 (mixture of isomers) [(±)trans-8-OMe-PIPAT, trans-8-Methoxy-2-[N-propyl-N-(3'-iodo-2'propenyl)]aminotetralin]

Structure (SMILES): CCCN(C/C=C/[125I])C1CCc2ccc(O)cc2C1 (stereo not drawn) [[^125 I]trans-7-OH-PIPAT]
specific binding toward D2L (dopamine D2L receptor): no specific binding
specific binding toward D2S (dopamine D2S receptor): no specific binding
stability of the product on storage [1]: stable for at least four weeks
purity after storage for at least four weeks ([1]; 50% etoh with ascorbic acid, 672 h): > 95%

Structure (SMILES): Oc1cccc2c1CC(NC/C=C/I)CC2 (racemic) [(±)trans-8-OH-IPAT, 8-Hydroxy-2-(N-3'-iodo-2'propenyl)aminotetralin]
Ki (5-HT1A receptor): 10 ± 2 nM

purity after storage for at least four weeks ([1]; -20° C., analyzed by HPLC, 40320 min): 95%
stability of the product on storage ([1]; stored at -20° C., 50% EtOH with ascorbic acid): stable for at least four weeks
Structure (SMILES): CCCN(C/C=C/[125I])C1CCc2cccc(O)c2C1 (stereo not drawn) [[^125 I] trans-8-OH-PIPAT]

Ki (5-HT1A receptor): 0.92 ± 0.13 nM
Structure (SMILES): CCCN(C/C=C/I)C1CCc2cccc(O)c2C1 (mixture of isomers) [(±)trans-8-OH-PIPAT, trans-8-Hydroxy-2-[N-propyl-N-(3'-iodo-2'propenyl)] aminotetralin]
affinity / selectivity for 5-HT1A (5-HT1A receptor): unique high affinity and selectivity toward serotonin 5-HT1A sites
